Converted amounts (≈) assume the structure as drawn. Like-named read-outs stand apart in the source and are kept apart here.
Key:
Assay type in all cases: cell-based
[1] = test system: Corynebacterium bovis 1810; assay: MIC, serial dilution on Mueller Hinton agar
Serratia marcescens = assay: MIC, serial dilution on Mueller Hinton agar
[2] = test system: Escherichia coli K-12 LA 290 R55; assay: MIC, serial dilution on Mueller Hinton agar; settings: for MIC: Escherichia coli, K12LA290R55, 18 h
[3] = test system: Escherichia coli K-12 ML 1629; assay: MIC, serial dilution on Mueller Hinton agar; settings: K12ML1629, Escherichia coli K-12 ML 1629, resistance mechanism APH(3')-I, 37°C, 18 hours
[4] = test system: Pseudomonas aeruginosa A3; assay: MIC, serial dilution on Mueller Hinton agar
[5] = test system: Pseudomonas aeruginosa GN 315; assay: MIC, serial dilution on Mueller Hinton agar; settings: GN315; Pseudomonas aeruginosa GN 315, resistance mechanism AAC(6'); Mueller Hinton agar, 37°C, 18 hours; read-out: MIC.
[6] = test system: Escherichia coli JR66/W677; assay: microbe, parasite or virus in culture; settings: JR66/W677, 18 h
[7] = test system: Staphylococcus aureus Ap01; assay: MIC, serial dilution on Mueller Hinton agar
Bacillus subtilis PCI219 = assay: MIC, serial dilution on Mueller Hinton agar
[8] = test system: Klebsiella pneumoniae 22#3038; assay: MIC, serial dilution on Mueller Hinton agar; settings: Klebsiella pneumoniae 22#3038, resistance mechanism APH(3')-II, ANT(2"), 37°C, 18 hours
Text: The antibacterial spectra so determined of the new compounds No. 1 to No. 13 (each in the form of the free base) of this invention are as shown in Table 1 below.

Escherichia coli K-12 R5 = assay: MIC, serial dilution on Mueller Hinton agar; settings: K12R5, 18 h
[9] = test system: Staphylococcus aureus 209P; assay: MIC, serial dilution on Mueller Hinton agar
Escherichia coli JR225 = assay: microbe, parasite or virus in culture; settings: for MIC: Escherichia coli, JR225, 18 h
Providencia sp. Pv 16 = assay: MIC, serial dilution on Mueller Hinton agar
Proteus rettgeri GN 311 = assay: MIC, serial dilution on Mueller Hinton agar; settings: Providencia rettgeri, GN311; Proteus rettgeri GN 311; Mueller Hinton agar, 37°C, 18 hours; read-out: MIC.
Escherichia coli K-12 = assay: MIC, serial dilution on Mueller Hinton agar; settings: K12; Escherichia coli K-12; Mueller Hinton agar, 37°C, 18 hours; read-out: MIC.
Mycobacterium 607 = assay: MIC, serial dilution on Mueller Hinton agar
[10] = Mueller Hinton agar, 37°C, 18 hours, read-out: MIC.
[11] = Corynebacterium bovis 1810, Mueller Hinton agar, 37°C, 18 hours, read-out: MIC.
[12] = Pseudomonas aeruginosa A3, Mueller Hinton agar, 37°C, 18 hours, read-out: MIC.
[13] = Staphylococcus aureus Ap01, resistance mechanism ANT(4'), Mueller Hinton agar, 37°C, 18 hours, read-out: MIC.
[14] = Bacillus subtilis PCI219, Mueller Hinton agar, 37°C, 18 hours, read-out: MIC.
[15] = Mycobacterium 607, Mueller Hinton agar, 37°C, incubated for 40 hours, read-out: MIC.
[16] = Staphylococcus aureus 209P, Mueller Hinton agar, 37°C, 18 hours, read-out: MIC.
[17] = SP.PV16, Providencia sp. Pv 16, resistance mechanism AAC(2'), Mueller Hinton agar, 37°C, 18 hours, read-out: MIC.

Row | SMILES | MIC (Serratia marcescens; [10]) | MIC [2] | MIC [3] | MIC [5] | MIC [6] | MIC [8] | MIC (Escherichia coli K-12 R5) | MIC [1, 11] | MIC (Escherichia coli JR225) | MIC (Providencia sp. Pv 16; Providencia, SP.PV16, 18 h) | MIC (Proteus rettgeri GN 311) | MIC [4, 12] | MIC (Escherichia coli K-12) | MIC [7, 13] | MIC (Bacillus subtilis PCI219; [14]) | MIC (Mycobacterium 607; [15]) | MIC [9, 16] | MIC (Providencia sp. Pv 16; [17]) | further results
1 | NCC[C@H](O)C(=O)N[C@@H]1C[C@H](N)[C@@H](O[C@H]2O[C@H](CN)[C@@H](O)[C@H](O)[C@H]2O)[C@H](O)[C@H]1O[C@H]1O[C@H](CO)[C@@H](O)[C@H](N)[C@H]1O [AMK, 1-N-(4-amino-2-(S)-hydroxybutyryl)-kanamycin A, reference compound] | 6.25 µg/mL (≈ 10.7 µM) | 1.56 µg/mL (≈ 2.66 µM) | 1.56 µg/mL (≈ 2.66 µM) | 25 µg/mL (≈ 42.7 µM) | 3.12 µg/mL (≈ 5.33 µM) | 3.12 µg/mL (≈ 5.33 µM) | 25 µg/mL (≈ 42.7 µM) |  |  |  |  |  |  |  |  |  |  |  | MIC ([1]; Corynebacterium bovis, 1810, 18 h): 1.56 µg/mL (≈ 2.66 µM); MIC ([4]; Pseudomonas aeruginosa, A3, 18 h): 1.56 µg/mL (≈ 2.66 µM); MIC ([7]; Staphylococcus aureus, AP01, 18 h): 3.12 µg/mL (≈ 5.33 µM); MIC (Bacillus subtilis PCI219; Bacillus subtilis, PCI219, 18 h): 1.56 µg/mL (≈ 2.66 µM); MIC ([9]; Staphylococcus aureus, 209P, 18 h): 1.56 µg/mL (≈ 2.66 µM)
2 | NC[C@H]1O[C@H](O[C@H]2[C@H](F)[C@@H](O[C@H]3O[C@H](CO)[C@@H](O)[C@H](N)[C@H]3O)[C@H](N)C[C@@H]2N)[C@H](N)[C@@H](O)[C@@H]1O [Compound No. 1, 5-Deoxy-5-fluorokanamycin B] | 6.25 µg/mL (≈ 12.9 µM) | 3.12 µg/mL (≈ 6.43 µM) | > 100 µg/mL | 100 µg/mL (≈ 206 µM) | > 100 µg/mL | > 100 µg/mL | 100 µg/mL (≈ 206 µM) | 0.78 µg/mL (≈ 1.61 µM) | 0.78 µg/mL (≈ 1.61 µM) | 3.12 µg/mL (≈ 6.43 µM) | < 0.2 µg/mL | 1.56 µg/mL (≈ 3.21 µM) | 0.78 µg/mL (≈ 1.61 µM) | 25 µg/mL (≈ 51.5 µM) | 0.39 µg/mL (≈ 0.803 µM) | 1.56 µg/mL (≈ 3.21 µM) | 0.39 µg/mL (≈ 0.803 µM) |  | antibacterial activity (Escherichia coli JR225; Escherichia coli JR 225, resistant strain having the enzyme for acetylating the 3-hydroxyl group of kanamycin B): significantly active; antibacterial activity (Providencia sp. Pv 16; Providensia Pv 16, resistant strain having the enzyme for acetylating the 2'-amino group of kanamycin B): significantly active; antibacterial activity ([2]; Escherichia coli K-12 LA290 R55, resistant strain having the enzyme for adenylating the 2"-hydroxyl group of kanamycin B): significantly active
3 | NC[C@@H]1C[C@H](O)[C@@H](N)[C@@H](O[C@H]2[C@H](F)[C@@H](O[C@H]3O[C@H](CO)[C@@H](O)[C@H](N)[C@H]3O)[C@H](N)C[C@@H]2N)O1 [Compound No. 3, 5,4'-Dideoxy-5-fluorokanamycin B] | 12.5 µg/mL (≈ 26.6 µM) | 6.25 µg/mL (≈ 13.3 µM) | > 100 µg/mL | 100 µg/mL (≈ 213 µM) | > 100 µg/mL | > 100 µg/mL | 100 µg/mL (≈ 213 µM) | 0.78 µg/mL (≈ 1.66 µM) | 6.25 µg/mL (≈ 13.3 µM) | 6.25 µg/mL (≈ 13.3 µM) | 0.2 µg/mL (≈ 0.426 µM) | 3.12 µg/mL (≈ 6.65 µM) | 1.56 µg/mL (≈ 3.32 µM) | 0.78 µg/mL (≈ 1.66 µM) | 0.39 µg/mL (≈ 0.831 µM) | 3.12 µg/mL (≈ 6.65 µM) | 0.39 µg/mL (≈ 0.831 µM) |  | 
4 | NC[C@H](O)C(=O)N[C@@H]1C[C@H](N)[C@@H](O[C@H]2O[C@H](CN)[C@@H](O)[C@H](O)[C@H]2N)[C@H](F)[C@H]1O[C@H]1O[C@H](CO)[C@@H](O)[C@H](N)[C@H]1O [Compound No. 5, 1-N-(3-Amino-2-(S)-hydroxypropionyl)-5-deoxy-5-fluorokanamycin B] |  | 1.56 µg/mL (≈ 2.72 µM) | 0.78 µg/mL (≈ 1.36 µM) | 6.25 µg/mL (≈ 10.9 µM) | 1.56 µg/mL (≈ 2.72 µM) | 3.12 µg/mL (≈ 5.45 µM) | 12.5 µg/mL (≈ 21.8 µM) | < 0.2 µg/mL | 0.2 µg/mL (≈ 0.349 µM) |  | < 0.2 µg/mL | 0.2 µg/mL (≈ 0.349 µM) | < 0.2 µg/mL | 6.25 µg/mL (≈ 10.9 µM) | 0.78 µg/mL (≈ 1.36 µM) | 6.25 µg/mL (≈ 10.9 µM) | 0.39 µg/mL (≈ 0.681 µM) | 0.78 µg/mL (≈ 1.36 µM) | MIC (Serratia marcescens; 18 h): 1.56 µg/mL (≈ 2.72 µM)
5 | NCC[C@H](O)C(=O)N[C@@H]1C[C@H](N)[C@@H](O[C@H]2O[C@H](CN)[C@@H](O)[C@H](O)[C@H]2N)[C@H](F)[C@H]1O[C@H]1O[C@H](CO)[C@@H](O)[C@H](N)[C@H]1O [Compound No. 6, 1-N-(4-Amino-2-(S)-hydroxybutyryl)-5-deoxy-5-fluorokanamycin B] | 1.56 µg/mL (≈ 2.66 µM) | 0.78 µg/mL (≈ 1.33 µM) | 0.78 µg/mL (≈ 1.33 µM) | 6.25 µg/mL (≈ 10.7 µM) | 0.78 µg/mL (≈ 1.33 µM) | 3.12 µg/mL (≈ 5.32 µM) | 12.5 µg/mL (≈ 21.3 µM) | < 0.2 µg/mL | < 0.2 µg/mL |  | < 0.2 µg/mL | < 0.2 µg/mL | < 0.2 µg/mL | 6.25 µg/mL (≈ 10.7 µM) | 0.39 µg/mL (≈ 0.665 µM) |  | 0.39 µg/mL (≈ 0.665 µM) | 0.78 µg/mL (≈ 1.33 µM) | MIC (Mycobacterium 607; Mycobacterium, 607, 40 h): 12.5 µg/mL (≈ 21.3 µM)

— patent EP0259014A2, “5-Deoxy-5-fluorokanamycin B derivatives and processes for the production thereof” (ZAIDAN HOJIN BISEIBUTSU KAGAKU KENKYU KAI, priority 1986, dated 1988)
